Test results as given in ChEMBL document CHEMBL5357012, “Dual N6/C7-Substituted 7-Deazapurine and Tricyclic Ribonucleosides with Affinity for G Protein-Coupled Receptors” (ACS Med Chem Lett, 2024).

Assays:
[1] = target: 5-hydroxytryptamine receptor 2B (Homo sapiens, UniProt P41595)
Description: Inhibition of human 5-HT2B receptor assessed as inhibition constant by microbeta scintillation counting method

[2] = target: Kappa-type opioid receptor (Homo sapiens, UniProt P41145); experiment: Inhibition of human KOR assessed as inhibition constant by microbeta scintillation counting method
[3] = Cytotoxicity against human MRC5 cells assessed as reduction in cell viability measured after 3 days by resazurin dye based fluorimetric analysis

5-hydroxytryptamine receptor 2B, sequence (P41595 whole entry): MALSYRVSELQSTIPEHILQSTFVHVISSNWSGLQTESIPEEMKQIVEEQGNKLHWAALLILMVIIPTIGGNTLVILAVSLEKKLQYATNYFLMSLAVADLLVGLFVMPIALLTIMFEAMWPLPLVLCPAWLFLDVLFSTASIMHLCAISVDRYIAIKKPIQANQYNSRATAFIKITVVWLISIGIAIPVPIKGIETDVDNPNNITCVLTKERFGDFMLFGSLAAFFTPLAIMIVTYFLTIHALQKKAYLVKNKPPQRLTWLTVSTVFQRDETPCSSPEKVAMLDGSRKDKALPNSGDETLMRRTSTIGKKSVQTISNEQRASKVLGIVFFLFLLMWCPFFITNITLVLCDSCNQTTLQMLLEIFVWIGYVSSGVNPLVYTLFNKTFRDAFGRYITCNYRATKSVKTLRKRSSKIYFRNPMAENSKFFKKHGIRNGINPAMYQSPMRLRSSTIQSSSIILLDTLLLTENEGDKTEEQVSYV
Kappa-type opioid receptor, sequence (P41145 whole entry): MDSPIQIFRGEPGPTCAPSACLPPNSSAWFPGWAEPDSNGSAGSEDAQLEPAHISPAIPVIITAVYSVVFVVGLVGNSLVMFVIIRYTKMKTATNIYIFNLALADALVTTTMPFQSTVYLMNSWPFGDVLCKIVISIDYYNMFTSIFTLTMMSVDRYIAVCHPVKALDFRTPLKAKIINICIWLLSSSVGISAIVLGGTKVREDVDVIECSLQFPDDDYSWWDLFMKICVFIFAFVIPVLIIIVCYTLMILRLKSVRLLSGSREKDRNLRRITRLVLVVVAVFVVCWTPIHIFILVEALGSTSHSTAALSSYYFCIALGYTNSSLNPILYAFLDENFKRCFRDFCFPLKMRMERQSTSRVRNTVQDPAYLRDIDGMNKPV

Compound	Ki [1]	Ki [2]	CC50 at 72 h [3]
OC[C@H]1O[C@@H](n2cc(C(F)(F)F)c3c(NCc4ccccc4Cl)ncnc32)[C@H](O)[C@@H]1O	550 nM		
C[C@H](Nc1ncnc2c1c(C(F)(F)F)cn2[C@@H]1O[C@H](CO)[C@@H](O)[C@H]1O)c1ccccc1		1900 nM	
OC[C@H]1O[C@@H](n2cc(C(F)(F)F)c3c(NCc4ccccc4F)ncnc32)[C@H](O)[C@@H]1O	1200 nM		> 64000 nM
OC[C@H]1O[C@@H](n2cc(C(F)(F)F)c3c(NCc4ccccc4)ncnc32)[C@H](O)[C@@H]1O	500 nM	1800 nM	
OC[C@H]1O[C@@H](n2cc(C(F)(F)F)c3c(NCc4ccc(Cl)cc4)ncnc32)[C@H](O)[C@@H]1O	830 nM		
OC[C@H]1O[C@@H](n2cc(C(F)(F)F)c3c(NCc4cccc(Cl)c4)ncnc32)[C@H](O)[C@@H]1O	620 nM		> 64000 nM
C[C@@H](Nc1ncnc2c1c(C(F)(F)F)cn2[C@@H]1O[C@H](CO)[C@@H](O)[C@H]1O)c1ccccc1	710 nM		
